Test results: PubChem BioAssay AID1963826 (Molecular Pharmacology Branch, DTP, NCI, 2024)

Test system: 926638-142-R-J1-PDC complex spheroid viability
Assay: Anticancer human tumor 926638-142-R-J1-PDC patient-derived endometrial carcinoma cell line growth inhibition [POLQ]
Conditions: for IC50: curve of first compound; for viability, T/C: stronger effect = lower value
In short: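 Complex spheroid viability model combining PDC tumour cells with endothelial (HUVEC) and MSC stromal cells. Novobiocin, ART-558 or RP6685 were tested singly and in combination with standard and investigational anticancer drugs. Each was titrated in half-log steps from near clinical Cmax, or from 10 microM where Cmax was unknown.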

[1] = second compound 0.0316 µM, first compound 0.0316 µM
[2] = second compound 0.0316 µM, first compound 0.1 µM
[3] = second compound 0.0316 µM, first compound 0.316 µM
[4] = second compound 0.0316 µM, first compound 1 µM
[5] = second compound 0.0316 µM, first compound 3.16 µM
[6] = second compound 0.0316 µM, first compound 10 µM
[7] = second compound 0.1 µM, first compound 0.0316 µM
[8] = second compound 0.1 µM, first compound 0.1 µM
[9] = second compound 0.1 µM, first compound 0.316 µM
[10] = second compound 0.1 µM, first compound 1 µM
[11] = second compound 0.1 µM, first compound 3.16 µM
[12] = second compound 0.1 µM, first compound 10 µM
[13] = second compound 0.316 µM, first compound 0.0316 µM
[14] = second compound 0.316 µM, first compound 0.1 µM
[15] = second compound 0.316 µM, first compound 0.316 µM
[16] = second compound 0.316 µM, first compound 1 µM
[17] = second compound 0.316 µM, first compound 3.16 µM
[18] = second compound 0.316 µM, first compound 10 µM
[19] = second compound 1 µM, first compound 0.0316 µM
[20] = second compound 1 µM, first compound 0.1 µM
[21] = second compound 1 µM, first compound 0.316 µM
[22] = second compound 1 µM, first compound 1 µM
[23] = second compound 1 µM, first compound 3.16 µM
[24] = second compound 1 µM, first compound 10 µM
[25] = second compound 3.16 µM, first compound 0.0316 µM
[26] = second compound 3.16 µM, first compound 0.1 µM
[27] = second compound 3.16 µM, first compound 0.316 µM
[28] = second compound 3.16 µM, first compound 1 µM
[29] = second compound 3.16 µM, first compound 3.16 µM
[30] = second compound 3.16 µM, first compound 10 µM
[31] = second compound 10 µM, first compound 0.0316 µM
[32] = second compound 10 µM, first compound 0.1 µM
[33] = second compound 10 µM, first compound 0.316 µM
[34] = second compound 10 µM, first compound 1 µM
[35] = second compound 10 µM, first compound 3.16 µM
[36] = second compound 10 µM, first compound 10 µM
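Also: spheroids exposed to drugs for one week before readout.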
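For viability, T/C in this document: percent viability relative to DMSO vehicle control wells set as 100%.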

Work on CC(=O)O[C@H]1C(=O)[C@@]2(C)[C@H]([C@H](OC(=O)c3ccccc3)[C@]3(O)C[C@H](OC(=O)[C@H](O)[C@@H](NC(=O)c4ccccc4)c4ccccc4)C(C)=C1C3(C)C)[C@]1(OC(C)=O)CO[C@@H]1C[C@@H]2O + COC1C(OC(N)=O)C(O)C(Oc2ccc3c(O)c(NC(=O)c4ccc(O)c(CC=C(C)C)c4)c(=O)oc3c2C)OC1(C)C yielded an IC50 (second compound 0.0316 µM) greater than 3 µM, an IC50 (second compound 0.1 µM) greater than 3 µM and an IC50 (second compound 0.316 µM) greater than 3 µM. It also gave an IC50 (second compound 1 µM) greater than 3 µM, an IC50 (second compound 3.16 µM) greater than 3 µM and an IC50 (second compound 10 µM) greater than 3 µM. For the same compound, the viability, T/C (second compound 0.0316 µM, first compound 0.00949 µM) was 94.1%, the viability, T/C (second compound 0.0316 µM, first compound 0.03 µM) was 76.3% and the viability, T/C (second compound 0.0316 µM, first compound 0.0949 µM) was 65.2%. The viability, T/C (second compound 0.0316 µM, first compound 0.3 µM) was 58%, the viability, T/C (second compound 0.0316 µM, first compound 0.949 µM) was 62.3% and the viability, T/C (second compound 0.0316 µM, first compound 3 µM) was 51.4%. The viability, T/C (second compound 0.1 µM, first compound 0.00949 µM) was 89.5%, the viability, T/C (second compound 0.1 µM, first compound 0.03 µM) was 80.9% and the viability, T/C (second compound 0.1 µM, first compound 0.0949 µM) was 62.8%. For the same compound, the viability, T/C (second compound 0.1 µM, first compound 0.3 µM) was 49.9%, the viability, T/C (second compound 0.1 µM, first compound 0.949 µM) was 60.1% and the viability, T/C (second compound 0.1 µM, first compound 3 µM) was 59%. For the same compound, the viability, T/C (second compound 0.316 µM, first compound 0.00949 µM) was 75.5%, the viability, T/C (second compound 0.316 µM, first compound 0.03 µM) was 74.7% and the viability, T/C (second compound 0.316 µM, first compound 0.0949 µM) was 63.6%. For the same compound, the viability, T/C (second compound 0.316 µM, first compound 0.3 µM) was 58.2%, the viability, T/C (second compound 0.316 µM, first compound 0.949 µM) was 48.4% and the viability, T/C (second compound 0.316 µM, first compound 3 µM) was 63.4%. It also gave a viability, T/C (second compound 1 µM, first compound 0.00949 µM) of 81.4%, a viability, T/C (second compound 1 µM, first compound 0.03 µM) of 70% and a viability, T/C (second compound 1 µM, first compound 0.0949 µM) of 55.9%. The viability, T/C (second compound 1 µM, first compound 0.3 µM) was 53.1%, the viability, T/C (second compound 1 µM, first compound 0.949 µM) was 62% and the viability, T/C (second compound 1 µM, first compound 3 µM) was 51.8%. It also gave a viability, T/C (second compound 3.16 µM, first compound 0.00949 µM) of 86.5%, a viability, T/C (second compound 3.16 µM, first compound 0.03 µM) of 72.2% and a viability, T/C (second compound 3.16 µM, first compound 0.0949 µM) of 67%. It also gave a viability, T/C (second compound 3.16 µM, first compound 0.3 µM) of 57.6%, a viability, T/C (second compound 3.16 µM, first compound 0.949 µM) of 67% and a viability, T/C (second compound 3.16 µM, first compound 3 µM) of 54.7%. For the same compound, the viability, T/C (second compound 10 µM, first compound 0.00949 µM) was 94.6%, the viability, T/C (second compound 10 µM, first compound 0.03 µM) was 73.4% and the viability, T/C (second compound 10 µM, first compound 0.0949 µM) was 64.9%. The viability, T/C (second compound 10 µM, first compound 0.3 µM) was 52.1%, the viability, T/C (second compound 10 µM, first compound 0.949 µM) was 51.8% and the viability, T/C (second compound 10 µM, first compound 3 µM) was 60.4%.

With COc1cc(C2c3cc4c(cc3C(OC3OC5COC(C)OC5C(O)C3O)C3COC(=O)C23)OCO4)cc(OC)c1O (stereo unspecified) + COC1C(OC(N)=O)C(O)C(Oc2ccc3c(O)c(NC(=O)c4ccc(O)c(CC=C(C)C)c4)c(=O)oc3c2C)OC1(C)C the IC50 (second compound 0.0316 µM) was greater than 10 µM, the IC50 (second compound 0.1 µM) was greater than 10 µM and the IC50 (second compound 0.316 µM) was greater than 10 µM. It also gave an IC50 (second compound 1 µM) greater than 10 µM, an IC50 (second compound 3.16 µM) greater than 10 µM and an IC50 (second compound 10 µM) greater than 10 µM. The viability, T/C [1] was 86.8%, the viability, T/C [2] was 79% and the viability, T/C [3] was 78.1%. The viability, T/C [4] was 78.4%, the viability, T/C [5] was 70.1% and the viability, T/C [6] was 56.2%. The viability, T/C [7] was 95%, the viability, T/C [8] was 80.6% and the viability, T/C [9] was 83.1%. For the same compound, the viability, T/C [10] was 62.7%, the viability, T/C [11] was 57.5% and the viability, T/C [12] was 57.7%. For the same compound, the viability, T/C [13] was 88.2%, the viability, T/C [14] was 98.7% and the viability, T/C [15] was 75.7%. The viability, T/C [16] was 79.3%, the viability, T/C [17] was 66% and the viability, T/C [18] was 64.6%. It also gave a viability, T/C [19] of 84.1%, a viability, T/C [20] of 85.8% and a viability, T/C [21] of 79%. For the same compound, the viability, T/C [22] was 61.6%, the viability, T/C [23] was 70.9% and the viability, T/C [24] was 55.6%. It also gave a viability, T/C [25] of 82%, a viability, T/C [26] of 88.4% and a viability, T/C [27] of 83.2%. The viability, T/C [28] was 80.2%, the viability, T/C [29] was 71.2% and the viability, T/C [30] was 60.9%. It also gave a viability, T/C [31] of 81.8%, a viability, T/C [32] of 75.3% and a viability, T/C [33] of 78.1%. For the same compound, the viability, T/C [34] was 74.9%, the viability, T/C [35] was 68.8% and the viability, T/C [36] was 55%.

Compound O=c1[nH]cc(F)c(=O)[nH]1 + COC1C(OC(N)=O)C(O)C(Oc2ccc3c(O)c(NC(=O)c4ccc(O)c(CC=C(C)C)c4)c(=O)oc3c2C)OC1(C)C has an IC50 (second compound 0.0316 µM) greater than 10 µM, an IC50 (second compound 0.1 µM) greater than 10 µM and an IC50 (second compound 0.316 µM) greater than 10 µM. It also gave an IC50 (second compound 1 µM) greater than 10 µM, an IC50 (second compound 3.16 µM) greater than 10 µM and an IC50 (second compound 10 µM) greater than 10 µM. It also gave a viability, T/C [1] of 124%, a viability, T/C [2] of 110% and a viability, T/C [3] of 94.1%. It also gave a viability, T/C [4] of 101%, a viability, T/C [5] of 98.4% and a viability, T/C [6] of 94.1%. For the same compound, the viability, T/C [7] was 106%, the viability, T/C [8] was 90.8% and the viability, T/C [9] was 104%. For the same compound, the viability, T/C [10] was 90.4%, the viability, T/C [11] was 103% and the viability, T/C [12] was 71%. The viability, T/C [13] was 125%, the viability, T/C [14] was 105% and the viability, T/C [15] was 87.3%. It also gave a viability, T/C [16] of 84.1%, a viability, T/C [17] of 98.2% and a viability, T/C [18] of 82.7%. For the same compound, the viability, T/C [19] was 98.3%, the viability, T/C [20] was 106% and the viability, T/C [21] was 90.1%. The viability, T/C [22] was 79.6%, the viability, T/C [23] was 79.3% and the viability, T/C [24] was 75.4%. It also gave a viability, T/C [25] of 102%, a viability, T/C [26] of 85.9% and a viability, T/C [27] of 90.6%. The viability, T/C [28] was 86.9%, the viability, T/C [29] was 79.5% and the viability, T/C [30] was 83.6%. It also gave a viability, T/C [31] of 104%, a viability, T/C [32] of 96.6% and a viability, T/C [33] of 77.1%. The viability, T/C [34] was 86.6%, the viability, T/C [35] was 114% and the viability, T/C [36] was 83.4%.
